For one series, the system named is A549 lung cancer cells. Description: Experiments of inhibiting growth of cancer cells, SRB method, A549. Type of series: cell-based. Conditions: Homo sapiens, 48 h with drug. On the procedure:
(§1) The cells were placed in 2.5 cm culture dish and cultured at 37° C. in wet air containing 5% CO2. Cell lines grew adhering to wall. The preparation and dilution of samples as well as process for inoculating them to cellular fluid were performed under aseptic condition. The test samples usually were dissolved in DMSO, stored at −70° C. […] GI50 values about inhibiting growth of cancer cells were determined by SRB (sulfonyl rhodamine B) method. Anticancer drug paclitaxel was used as positive control.
(§2) A549: lung cancer cells; DU145: prostate cancer cells; KB: nasopharyngeal cancer cells; KB-VIN: drug-resistant nasopharyngeal cancer cells. GI50 value was the concentration that causes 50% cancer cells growth inhibition, showing anticancer activity.
A general note: The SRB assay estimates cell density from bound dye.

Series [1] deals with DU145 prostate cancer cells. As to the kind of experiment: Experiments of inhibiting growth of cancer cells, SRB method, DU145. It is filed as cell-based. The following applies: Homo sapiens, DU-145, 48 h with drug. On the procedure:
as §1, §2

In brackets after ≈: the same amount, converted by molar mass.

`COc1ccc2c(c1)CCCN2c1nc(Cl)nc2ccccc12` [Compound 1, N^1-[4-(2-chloro)quinazolinyl]-6-methoxy-1,2,3,4-tetrahydroquinoline]: the GI50 is 0.0006 µg/mL (≈ 0.00184 µM) with A549 lung cancer cells and 0.0005 µg/mL (≈ 0.00153 µM) in series [1].

As to `COc1ccc2c(c1)CCCN2c1nc(C)nc2ccccc12` [Compound 2, N^1-[4-(2-methyl)quinazolinyl]-6-methoxy-1,2,3,4-tetrahydroquinoline], the 50% growth inhibitory concentration (GI50) in the series on A549 lung cancer cells came to 0.0056 µg/mL (≈ 0.0183 µM); in series [1] it was 0.0046 µg/mL (≈ 0.0151 µM).

Turning to `COc1ccc2c(c1)CCCN2c1nc(OC)nc2ccccc12` [Compound 3, N^1-[4-(2-methoxy)quinazolinyl]-6-methoxy-1,2,3,4-tetrahydro-quinoline], the melting point fell in the range of 161 to 163 °C. The same compound registered a concentration for 50% growth inhibition (GI50) in the series with A549 lung cancer cells of 0.0077 µg/mL (≈ 0.024 µM). In series [1], this compound came in with a GI50 of 0.0069 µg/mL (≈ 0.0215 µM).

As for `CNc1nc(N2CCCc3cc(OC)ccc32)c2ccccc2n1` [Compound 4, N^1-[4-(2-methylamino)quinazolinyl]-6-methoxy-1,2,3,4-tetrahydro-quinoline], the results for the concentration for 50% growth inhibition (GI50) (with A549 lung cancer cells; in series [1]) were 0.0088 µg/mL (≈ 0.0275 µM) and 0.0075 µg/mL (≈ 0.0234 µM), respectively.

The compound `Cc1ccc2c(c1)CCCN2c1nc(C)nc2ccccc12` [Compound 6, N^1-[4-(2-methyl)quinazolinyl]-6-methyl-1,2,3,4-tetrahydroquinoline] yielded a melting point of 136 to 138 °C. This compound also yielded a GI50 in the series on A549 lung cancer cells of 0.061 µg/mL (≈ 0.211 µM). Moreover, the GI50 in series [1] turned out to be 0.051 µg/mL (≈ 0.176 µM).

Consider `Cc1nc(N2CCCc3cc(Br)ccc32)c2ccccc2n1` [Compound 7, N^1-[4-(2-methyl)quinazolinyl]-6-bromo-1,2,3,4-tetrahydroquinoline], for which the melting point lay within 129 to 130 °C. In addition, the GI50 in the series with A549 lung cancer cells is 0.075 µg/mL (≈ 0.212 µM). The compound further came in with a GI50 in series [1] of 0.06 µg/mL (≈ 0.169 µM).

Compound `COc1ccc2c(c1)CCN2c1nc(C)nc2ccccc12` [Compound 8, 2-Methyl-4-[N^1-(5-methoxy)indolinyl]quinazoline] had a melting point of 116 to 117 °C. Moreover, the GI50 in the series on A549 lung cancer cells stood at 0.0679 µg/mL (≈ 0.233 µM). The concentration for 50% growth inhibition (GI50) in series [1] amounted to 0.059 µg/mL (≈ 0.203 µM).

As to `COc1ccc2c(c1)CCCN(c1nc(C)nc3ccccc13)C2` [Compound 9, N^2-[4-(2-methyl)quinazolinyl]-7-methoxy-2,3,4,5-tetrahydro-1H-benzo[c]azepine], the melting point lay in the range of 125 to 127 °C. The compound further displayed a 50% growth inhibitory concentration (GI50) in the series with A549 lung cancer cells of 5.34 µg/mL (≈ 16.7 µM). The compound also came in with a GI50 in series [1] of 4.76 µg/mL (≈ 14.9 µM).

Take `COc1ccc2c(c1)CCCCN2c1nc(Cl)nc2ccccc12` [Compound 10, N^1-[4-(2-chloro)quinazolinyl]-7-methoxy-2,3,4,5-tetrahydro-1H-benzo[b]-azepine]: the melting point was in the range of 102 to 103 °C. The compound also showed a GI50 in the series on A549 lung cancer cells of 0.065 µg/mL (≈ 0.191 µM). This compound also yielded a GI50 in series [1] of 0.056 µg/mL (≈ 0.165 µM).

For `COc1ccc2c(c1)C(O)CCN2c1nc(C)nc2ccccc12` (stereo not shown) [Compound 11, N^1-[4-(2-methyl)quinazolinyl]-4-hydroxyl-6-methoxy-1,2,3,4-tetrahydroquinoline], the 50% growth inhibitory concentration (GI50) (with A549 lung cancer cells; in series [1]) was 0.006 µg/mL (≈ 0.0187 µM) in each case.

`CCOC1CCN(c2nc(Cl)nc3ccccc23)c2ccc(OC)cc21` (stereo not shown) [Compound 12, N^1-[4-(2-chloro)quinazolinyl]-4-ethoxy-6-methoxy-1,2,3,4-tetrahydroquinoline] registered a melting point of 70 to 72 °C. This compound also gave a concentration for 50% growth inhibition (GI50) in the series on A549 lung cancer cells of 0.065 µg/mL (≈ 0.176 µM). Also, halving of growth in series [1] (GI50) required 0.06 µg/mL (≈ 0.162 µM).

As for `COc1ccc2c(c1)OCCN2c1nc(Cl)nc2ccccc12` [Compound 13, N^4-[4-(2-chloro)quinazolinyl]-7-methoxy-3,4-dihydro-2H-benzo[b][1,4]oxazine], the melting point lay within 173 to 174 °C. In the series on A549 lung cancer cells, growth was halved (GI50) at 0.065 µg/mL (≈ 0.198 µM). This compound gave a 50% growth inhibitory concentration (GI50) in series [1] of 0.055 µg/mL (≈ 0.168 µM).

For `COc1cc2c(cc1F)N(c1nc(C)nc3ccccc13)CCO2` [Compound 14, N^4-[4-(2-methyl)quinazolinyl]-6-fluoro-7-methoxy-3,4-dihydro-2H-benzo[b][1,4]oxazine], the melting point was 192 to 194 °C. Also, the GI50 in the series with A549 lung cancer cells was 4.71 µg/mL (≈ 14.5 µM). In series [1], this compound displayed a GI50 of 7.77 µg/mL (≈ 23.9 µM).

`COc1ccc2c(c1)C(=O)CCN2c1nc(Cl)nc2ccccc12` [Compound 18, N^1-[4-(2-chloro)quinazolinyl]-6-methoxy-2,3-dihydroquinolin-4(1H)-one] registered a melting point of 218 to 220 °C. Moreover, the GI50 with A549 lung cancer cells was 0.0091 µg/mL (≈ 0.0268 µM). The same compound showed a 50% growth inhibitory concentration (GI50) in series [1] of 0.0106 µg/mL (≈ 0.0312 µM).

For `COc1ccc2c(c1)NC(=O)CN2c1nc(C)nc2ccccc12` [Compound 19, N^4-[4-(2-methyl)quinazolinyl]-7-methoxy-3,4-dihydroquinoxalin-2(1H)-one], the GI50 in the series on A549 lung cancer cells was 0.001 µg/mL (≈ 0.00312 µM); in series [1], 0.0007 µg/mL (≈ 0.00219 µM).

As to `COc1ccc2c(c1)CCCN2c1cc(C)nc2ccccc12` [Compound 20, 6-methoxy-2′-methyl-3,4-dihydro-2H-1,4′-biquinoline], the 50% growth inhibitory concentration (GI50) in the series on A549 lung cancer cells came out at 0.0138 µg/mL (≈ 0.0453 µM); in series [1], 0.0115 µg/mL (≈ 0.0378 µM).

As to `COC(=O)c1cc(Br)cc(N2CCCc3cc(OC)ccc32)c1` [Compound 26, N^1-[(3-bromo-5-methoxycarbonyl)phenyl]-6-methoxy-1,2,3,4-tetrahydroquinoline], the GI50 with A549 lung cancer cells was 0.421 µg/mL (≈ 1.12 µM); in series [1], 0.483 µg/mL (≈ 1.28 µM).

Turning to `COc1ccc2c(c1)CCCN2c1cc(Br)cc(C(=O)O)c1` [Compound 27, N^1-[(3-bromo-5-carboxyl)phenyl]-6-methoxy-1,2,3,4-tetrahydro-quinoline], the melting point lay within 175 to 177 °C.

As for `CNC(=O)c1cc(Br)cc(N2CCCc3cc(OC)ccc32)c1` [Compound 28, N^1-[(3-bromo-5-methylaminoacyl)phenyl]-6-methoxy-1,2,3,4-tetrahydroquinoline], the melting point is 166 to 167 °C. The compound also yielded a GI50 in the series with A549 lung cancer cells of 0.14 µg/mL (≈ 0.373 µM). In series [1], the GI50 was 0.209 µg/mL (≈ 0.557 µM).

Regarding `COc1ccc2c(c1)CCCN2c1cc(Br)cc(C(=O)NC2CC2)c1` [Compound 29, N^1-[3-bromo-5-(N-cyclopropylaminoacyl)phenyl]-6-methoxy-1,2,3,4-tetrahydroquinoline], the 50% growth inhibitory concentration (GI50) with A549 lung cancer cells was found to be 0.067 µg/mL (≈ 0.167 µM); in series [1] it was 0.062 µg/mL (≈ 0.154 µM).

In the case of `COc1ccc2c(c1)CCCN2c1cc(Cl)nc(N)n1` [Compound 30, N^1-[4-(2-amino-6-chloro)pyrimidinyl]-6-methoxy-1,2,3,4-tetrahydro-quinoline], the melting point lay in the range of 179 to 181 °C. This compound also registered a concentration for 50% growth inhibition (GI50) in the series on A549 lung cancer cells of 0.077 µg/mL (≈ 0.265 µM). Further, the concentration for 50% growth inhibition (GI50) in series [1] stood at 0.06 µg/mL (≈ 0.206 µM).

With `COc1ccc2c(c1)N(C)C(=O)CN2c1nc(C)nc2ccccc12` [Compound 31, N^1-methyl-N^4-[4-(2-methyl)quinazolinyl]-7-methoxy-3,4-dihydro-quinoxalin-2(1H)-one], the GI50 amounted to 0.0063 µg/mL (≈ 0.0188 µM) with A549 lung cancer cells and 0.0072 µg/mL (≈ 0.0215 µM) in series [1].

Consider `COc1ccc2c(c1)CCCN2c1nc(N(C)C)nc2ccccc12` [Compound 32, 2-(N-methylmethylamino)-4-(6-methoxy-1,2,3,4-tetrahydro-1-quinolyl)quinazoline], for which the 50% growth inhibitory concentration (GI50) in the series with A549 lung cancer cells is 0.056 µg/mL (≈ 0.167 µM); in series [1], 0.051 µg/mL (≈ 0.153 µM).

On to `COc1ccc2c(c1)CCCN2c1nc(NC2CC2)nc2ccccc12` [Compound 33, 2-cyclopropylamino-4-(6-methoxy-1,2,3,4-tetrahydro-1-quinolyl) quinazoline], for which the concentration for 50% growth inhibition (GI50) in the series on A549 lung cancer cells was 0.0057 µg/mL (≈ 0.0165 µM); in series [1] it was 0.0045 µg/mL (≈ 0.013 µM).

Take `COc1ccc2c(c1)CCCN2c1nc(NC2CCCC2)nc2ccccc12` [Compound 34, 2-cyclopentylamino-4-(6-methoxy-1,2,3,4-tetrahydro-1-quinolyl) quinazoline]: the GI50 stood at 0.501 µg/mL (≈ 1.34 µM) with A549 lung cancer cells and 0.483 µg/mL (≈ 1.29 µM) in series [1].

On to `COc1ccc2c(c1)CCCN2c1nc(NCCCO)nc2ccccc12` [Compound 35, 2-(3-hydroxylpropylamino)-4-(6-methoxy-1,2,3,4-tetrahydro-1-quinolyl)quinazoline], for which the 50% growth inhibitory concentration (GI50) in the series on A549 lung cancer cells was 0.0058 µg/mL (≈ 0.0159 µM); in series [1], 0.0073 µg/mL (≈ 0.02 µM).

Take `COc1ccc2c(c1)CCCN2c1cccc2ccccc12` [Compound 37, 4-(6-methoxy-1,2,3,4-tetrahydro-1-quinolyl)naphthalene]: the results for the GI50 (in the series with A549 lung cancer cells; in series [1]) were 5.15 µg/mL (≈ 17.8 µM) and 4.27 µg/mL (≈ 14.8 µM), respectively.

Regarding `CC(=O)O[C@H]1C(=O)[C@@]2(C)[C@H]([C@H](OC(=O)c3ccccc3)[C@]3(O)C[C@H](OC(=O)[C@H](O)[C@@H](NC(=O)c4ccccc4)c4ccccc4)C(C)=C1C3(C)C)[C@]1(OC(C)=O)CO[C@@H]1C[C@@H]2O` [Paclitaxel, paclitaxel, reference compound], the 50% growth inhibitory concentration (GI50) was 0.0065 µg/mL (≈ 0.00761 µM) in the series with A549 lung cancer cells and 0.0053 µg/mL (≈ 0.00621 µM) in series [1].

As usually defined, the GI50 is the concentration at which growth is held to half of that of the control. Read a low GI50 as greater sensitivity of the cells. The term melting point denotes the temperature, or range, at which the solid turns liquid.

Values taken from patent US9751884B2, “N-aryl unsaturated fused ring tertiary amine compounds, preparation method and anti-tumor applications thereof” (Institute of Pharmacology and Toxicology Academy of …, priority 2012, dated 2017).
